Measured values published in ChEMBL document CHEMBL3745645, “Synthesis, in vitro antitumor activity, dihydrofolate reductase inhibition, DNA intercalation and structure-activity relationship studies of 1,3,5-triazine analogues” (Bioorg Med Chem Lett, 2016).
Calls of active or inactive are those of the source. The calls are words filed in the database; no cut-off is given here.

Assays:
Type in all cases: functional
SN12C = assay: Cytotoxicity against human SN12C cells at 10 uM after 48 hrs by SRB assay; settings: read-out: GI
[1] = Cytotoxicity against human HOP92 cells at 10 uM after 48 hrs by SRB assay; settings: HOP-92, 48 h, read-out: GI
HT-29 = assay: Cytotoxicity against human HT-29 cells at 10 uM after 48 hrs by SRB assay; settings: HT-29, 48 h, read-out: GI
[2] = Cytotoxicity against human UO31 cells at 10 uM after 48 hrs by SRB assay; settings: UO-31, 48 h, read-out: GI
[3] = Cytotoxicity against human HL-60(TB) cells at 10 uM after 48 hrs by SRB assay; settings: HL-60, 48 h, read-out: GI
NCI-H522 = assay: Cytotoxicity against human NCI-H522 cells at 10 uM after 48 hrs by SRB assay; settings: NCI-H522, 48 h, read-out: GI
[4] = Cytotoxicity against human OVCAR8 cells at 10 uM after 48 hrs by SRB assay; settings: OVCAR-8, 48 h, read-out: GI
786-0 = assay: Cytotoxicity against human 786-0 cells at 10 uM after 48 hrs by SRB assay
[5] = Cytotoxicity against human LOXIMVI cells at 10 uM after 48 hrs by SRB assay; settings: LOX IMVI, read-out: GI
OVCAR-5 = assay: Cytotoxicity against human OVCAR5 cells at 10 uM after 48 hrs by SRB assay
NCI-H226 = assay: Cytotoxicity against human NCI-H226 cells at 10 uM after 48 hrs by SRB assay; settings: NCI-H226, 48 h, read-out: GI
[6] = Cytotoxicity against human IGROV1 cells at 10 uM after 48 hrs by SRB assay; settings: IGROV-1, 48 h, read-out: GI
NCI-H460 = assay: Cytotoxicity against human NCI-H460 cells at 10 uM after 48 hrs by SRB assay; settings: NCI-H460, 48 h, read-out: GI
[7] = Cytotoxicity against human HOP62 cells at 10 uM after 48 hrs by SRB assay; settings: HOP-62, 48 h, read-out: GI
A498 = assay: Cytotoxicity against human A498 cells at 10 uM after 48 hrs by SRB assay; settings: A498, 48 h, read-out: GI
[8] = Cytotoxicity against human OVCAR4 cells at 10 uM after 48 hrs by SRB assay; settings: OVCAR-4, 48 h, read-out: GI
SK-MEL-2 = assay: Cytotoxicity against human SK-MEL-2 cells at 10 uM after 48 hrs by SRB assay
MDA-MB-231 = assay: Cytotoxicity against human MDA-MB-231 cells at 10 uM after 48 hrs by SRB assay; settings: MDA-MB-231, 48 h, read-out: GI
U-251 = assay: Cytotoxicity against human U251 cells at 10 uM after 48 hrs by SRB assay; settings: U-251, 48 h, read-out: GI
[9] = Cytotoxicity against human OVCAR3 cells at 10 uM after 48 hrs by SRB assay; settings: OVCAR-3, 48 h, read-out: GI
MCF7 = assay: Cytotoxicity against human MCF7 cells at 10 uM after 48 hrs by SRB assay; settings: MCF7, 48 h, read-out: GI
SW-620 = assay: Cytotoxicity against human SW620 cells at 10 uM after 48 hrs by SRB assay
[10] = Cytotoxicity against human SNB19 cells at 10 uM after 48 hrs by SRB assay; settings: SNB-19, 48 h, read-out: GI
A549 = assay: Cytotoxicity against human A549 cells at 10 uM after 48 hrs by SRB assay; settings: A549, 48 h, read-out: GI
[11] = Cytotoxicity against human SKOV3 cells at 10 uM after 48 hrs by SRB assay; settings: SK-OV-3, 48 h, read-out: GI
[12] = Cytotoxicity against human SNB75 cells at 10 uM after 48 hrs by SRB assay; settings: SNB-75, 48 h, read-out: GI
MDA-MB-435 = assay: Cytotoxicity against human MDA-MB-435 cells at 10 uM after 48 hrs by SRB assay; settings: MDA-MB-435, 48 h, read-out: GI
BT-549 = assay: Cytotoxicity against human BT549 cells at 10 uM after 48 hrs by SRB assay
NCI-H322M = assay: Cytotoxicity against human NCI-H322M cells at 10 uM after 48 hrs by SRB assay; settings: read-out: GI
HCC 2998 = assay: Cytotoxicity against human HCC2998 cells at 10 uM after 48 hrs by SRB assay
RXF 393 = assay: Cytotoxicity against human RXF393 cells at 10 uM after 48 hrs by SRB assay
TK-10 = assay: Cytotoxicity against human TK10 cells at 10 uM after 48 hrs by SRB assay
[13] = Cytotoxicity against human RPMI8226 cells at 10 uM after 48 hrs by SRB assay; settings: RPMI-8226, 48 h, read-out: GI
CCRF-CEM = assay: Cytotoxicity against human CCRF-CEM cells at 10 uM after 48 hrs by SRB assay; settings: read-out: GI
K562 = assay: Cytotoxicity against human K562 cells at 10 uM after 48 hrs by SRB assay; settings: K562, 48 h, read-out: GI
Malme-3M = assay: Cytotoxicity against human MALME-3M cells at 10 uM after 48 hrs by SRB assay; settings: read-out: GI
SK-MEL-5 = assay: Cytotoxicity against human SK-MEL-5 cells at 10 uM after 48 hrs by SRB assay; settings: SK-MEL-5, 48 h, read-out: GI
[14] = Cytotoxicity against human SF295 cells at 10 uM after 48 hrs by SRB assay; settings: SF-295, 48 h, read-out: GI
SR = assay: Cytotoxicity against human SR cells at 10 uM after 48 hrs by SRB assay; settings: read-out: GI
[15] = Cytotoxicity against human HCT116 cells at 10 uM after 48 hrs by SRB assay; settings: HCT-116, 48 h, read-out: GI
[16] = Cytotoxicity against human MOLT4 cells at 10 uM after 48 hrs by SRB assay; settings: MOLT-4, 48 h, read-out: GI
M14 = assay: Cytotoxicity against human M14 cells at 10 uM after 48 hrs by SRB assay; settings: M14, 48 h, read-out: GI
ACHN = assay: Cytotoxicity against human ACHN cells at 10 uM after 48 hrs by SRB assay; settings: read-out: GI
SK-MEL-28 = assay: Cytotoxicity against human SK-MEL-28 cells at 10 uM after 48 hrs by SRB assay
[17] = Cytotoxicity against human SF268 cells at 10 uM after 48 hrs by SRB assay; settings: SF-268, 48 h, read-out: GI
[18] = Cytotoxicity against human HCT15 cells at 10 uM after 48 hrs by SRB assay; settings: HCT-15, 48 h, read-out: GI
[19] = Cytotoxicity against human COLO205 cells at 10 uM after 48 hrs by SRB assay; settings: COLO 205, 48 h, read-out: GI
[20] = Cytotoxicity against human NCI-ADR-RES cells at 10 uM after 48 hrs by SRB assay; settings: read-out: GI
[21] = Cytotoxicity against human DU145 cells at 10 uM after 48 hrs by SRB assay; settings: DU-145, 48 h, read-out: GI
T47D = assay: Cytotoxicity against human T47D cells at 10 uM after 48 hrs by SRB assay; settings: read-out: GI
SF-539 = assay: Cytotoxicity against human SF539 cells at 10 uM after 48 hrs by SRB assay
[22] = Cytotoxicity against human Hs 578T cells at 10 uM after 48 hrs by SRB assay; settings: read-out: GI
MDA-MB-468 = assay: Cytotoxicity against human MDA-MB-468 cells at 10 uM after 48 hrs by SRB assay
UACC-257 = assay: Cytotoxicity against human UACC257 cells at 10 uM after 48 hrs by SRB assay
CAKI-1 = assay: Cytotoxicity against human Caki1 cells at 10 uM after 48 hrs by SRB assay
KM12 = assay: Cytotoxicity against human KM12 cells at 10 uM after 48 hrs by SRB assay; settings: KM12, 48 h, read-out: GI

Cc1nc2cc(Nc3nc(Nc4ccc(F)cc4)nc(Nc4ncccn4)n3)ccc2n1Cc1ccccc1
inhibition of growth at 10 µM (SN12C): 8.42%
inhibition of growth at 10 µM [1]: 18.4%
inhibition of growth at 10 µM (HT-29): 14.8%
inhibition of growth at 10 µM [2]: 27%
inhibition of growth at 10 µM [3]: 30.1%
inhibition of growth at 10 µM (NCI-H522): 22.5%
inhibition of growth at 10 µM [4]: 8.83%
growth inhibition (GI) (786-0): inactive
inhibition of growth at 10 µM [5]: 3.01%
growth inhibition (GI) (OVCAR-5): inactive
inhibition of growth at 10 µM (NCI-H226): 11.5%
inhibition of growth at 10 µM [6]: 24%
inhibition of growth at 10 µM (NCI-H460): 5.2%
inhibition of growth at 10 µM [7]: 2.38%
inhibition of growth at 10 µM (A498): 11.5%
inhibition of growth at 10 µM [8]: 20.2%
growth inhibition (GI) (SK-MEL-2): inactive
inhibition of growth at 10 µM (MDA-MB-231): 7.37%
inhibition of growth at 10 µM (U-251): 13.2%
inhibition of growth at 10 µM [9]: 9.64%
inhibition of growth at 10 µM (MCF7): 20.1%
growth inhibition (GI) (SW-620): inactive
inhibition of growth at 10 µM [10]: 7.38%
inhibition of growth at 10 µM (A549): 17.8%
inhibition of growth at 10 µM [11]: 2.64%
inhibition of growth at 10 µM [12]: 15.6%
inhibition of growth at 10 µM (MDA-MB-435): 9.24%
growth inhibition (GI) (BT-549): inactive
inhibition of growth at 10 µM (NCI-H322M): 5.47%
growth inhibition (GI) (HCC 2998): inactive
growth inhibition (GI) (RXF 393): inactive
growth inhibition (GI) (TK-10): inactive
inhibition of growth at 10 µM [13]: 57.4%
inhibition of growth at 10 µM (CCRF-CEM): 63.2%
inhibition of growth at 10 µM (K562): 41.3%
inhibition of growth at 10 µM (Malme-3M): 7.94%
inhibition of growth at 10 µM (SK-MEL-5): 6.35%
inhibition of growth at 10 µM [14]: 15.6%
inhibition of growth at 10 µM (SR): 51.6%
inhibition of growth at 10 µM [15]: 15.8%
inhibition of growth at 10 µM [16]: 44.6%
inhibition of growth at 10 µM (M14): 5.65%
inhibition of growth at 10 µM (ACHN): 1.6%
growth inhibition (GI) (SK-MEL-28): inactive
inhibition of growth at 10 µM [17]: 11.2%
inhibition of growth at 10 µM [18]: 12.7%
inhibition of growth at 10 µM [19]: 10.5%
inhibition of growth at 10 µM [20]: 10.5%
inhibition of growth at 10 µM [21]: 4.12%
inhibition of growth at 10 µM (T47D): 25.1%
growth inhibition (GI) (SF-539): inactive
inhibition of growth at 10 µM [22]: 20.9%
growth inhibition (GI) (MDA-MB-468): inactive
growth inhibition (GI) (UACC-257): inactive
growth inhibition (GI) (CAKI-1): inactive
inhibition of growth at 10 µM (KM12): 11.6%
